Source: PMC12794188, “Maternal–Fetal Transfer and Toxicokinetics of 2,2′,5,5′-Tetrachlorobiphenyl, [^14C]-PCB52, Following Intratracheal Administration” (Chemical Research in Toxicology, 2025)
Several values for one entry are separate records, joined by “and”; a condition that tells them apart may be missing. Equal entries are not always repeated. Where two headings read alike, the source gives them in different places.

Key:
[1] = design: method as in Pu et al.; conditions: ref Pu et al., cited from earlier work
[2] = Metabolite extraction and analysis: parent PCB52 and metabolite fractions in tissues and urine after intratracheal [14C]-PCB52; format: in vivo, Sprague–Dawley rats; conditions: for PCB52 share of radioactivity over time / unmetabolized PCB52 share of radioactivity over time: over the 96 h period; for parent PCB52 share of radioactivity: maternal serum
Source text: A complex mixture of confirmed and putative metabolites of PCBs has been reported in the literature. To quantify the metabolites of PCB52 in maternal serum, the developing fetus, liver, brain, lung, and adipose tissue in this study, we employed a series of liquid–liquid extractions with solvents of increasing polarity to separate phenolic, methyl sulfones, and glucuronate/sulfated metabolites. , Recovery experiments used available standards including parent PCB52, 4-OH-PCB52, 3-MeSO2-PCB52, and 4-MeSO2-PCB52 metabolites in biological samples. The levels of the parent compound PCB52 and its extractable metabolites in the samples were determined using a validated liquid scintillation counting method coupled with gas chromatography-electron capture detection (GC-ECD), following our previous protocol. , Individual extractable metabolite was separated using a series of liquid–liquid extractions, employing a graded array of solvents with incrementing polarity to facilitate the partitioning of the analytes according to their inherent lipophilic characteristics (Figure S4). Subsequently, individual fractions were classified into respective categories, including the parent PCB moiety, hydroxylated PCBs (OH-PCBs), methyl sulfonyl PCBs (MeSO2–PCBs), conjugated metabolites, and unextractable components.
Tissue samples (200–400 mg wet weight) were prepared for analysis through a two-step homogenization using 2 mL of hexane/acetone solvent (50% vol/vol). The resultant solution was centrifuged, and then the pellet underwent two successive extractions with 1.5 mL of dichloromethane (DCM), chloroform/methanol (50:50 vol/vol), methanol/water (50:50 vol/vol), and water, respectively. The supernatant from the DCM extraction contained hydroxylated metabolites, whereas the top fractions from the methanol/water extraction had conjugated PCB metabolites. The resultant supernatant from the hexane/acetone extraction was rinsed with Milli-Q water, then extracted with a 0.5 M potassium hydroxide (KOH) solution in 50% ethanol, and triple rinsed with 400 μL of hexane. The hydrophobic fraction was further purified by rinsing with 1 M hydrochloric acid (400 μL). Simultaneously, a plausible MeSO2–PCBs fraction was extracted with 500 μL of anhydrous DMSO, followed by triple hexane rinses (3 × 400 μL). The residual hydrophobic phase was quantified as native PCB52. The quantification of cold PCB52, OH-PCBs (as MeO-PCB derivatives), and MeSO2-PCBs standards in spiked samples was initially performed on a gas chromatograph (Agilent 6890N) equipped with a 63Ni μ-ECD detector and SLB-5MS capillary column (60 m × 0.25 mm I.D., 0.25 μm film thickness; Supelco, St Louis, MO). Subsequently, individual separated fractionation from [^14C]-PCB52-exposed tissue samples was transferred to a prepared scintillation vial, followed by the addition of 10 mL of cocktail solution and analysis by scintillation counter. Any quantifiable radioactivity in the residual pellet was treated as unextractable compounds.

[3] = Literature half-life of PCB52 following intravenous administration in male rats (Pu et al.); conditions: rat, in vivo, concentration–time data of Pu et al., read-out: half-life when Pu et al. data are fitted to a two-compartmental PK model
[4] = Pulmonary uptake, exhalation and excretion (mass balance) after intratracheal [14C]-PCB52; format: in vivo, Sprague–Dawley rats
Protocol: Female Sprague–Dawley rats (8 weeks old) weighing 237–269.7 g (mean = 247.5 g) (Envigo RMS, LLC, Indianapolis, IN) were used for this study. All animal experiments were performed following the protocols evaluated and approved by the University of Iowa Institutional Animal Care and Use Committee (approval number 3091097). After arrival, the animals were acclimated for 7 days. The animals were housed in a light and temperature-controlled environment with ad libitum access to food and water during quarantine and throughout the study. Timed pregnancy was achieved by harem mating. , Briefly, one male and two female rats were placed together in the evening and checked for vaginal plug the following day. If vaginal plug was present, the male was removed from the breeding cage, and the gestation day 0 (GD 0), 0-day post coitum was assigned. Pregnancies were confirmed by ultrasound scan at GD 9. The dams were exposed at GD 11 (±1 day) to capture the period of early organogenesis and hormonal function, which falls within week 3 of human embryonic development. ,− On the day of the experiment, pregnant rats were intratracheally administered an average of 40 μg (range, 35–45 μg) of [^14C]-PCB52 in 100 μL of exposure solution. Although the dose used in this study exceeded the tolerable daily intake (TDI) of PCBs for healthy individuals, which is 1.6 μg per day for an individual weighing 80 kg, the use of higher acute doses has been established in toxicological studies intended for risk assessment. The intratracheal instillation method was chosen for administering [^14C]-PCB52 to represent inhalation exposures, capture exhaled concentration, and efficiently utilize the limited availability of the cost-intensive radiolabeled PCB52. , Although inhalation exposure would better represent real-world exposures to airborne LC-PCBs, it would not allow us to accurately measure the amount of PCB52 exhaled into the air after exposure and is experimentally infeasible. […] All intratracheal instillations were done under light anesthesia, achieved using a 4% isoflurane concentration via a Fortec vaporizer (Cyprane, Keighley, UK). The animals recovered from anesthesia within 1 min. Subsequently, the animals were housed within a cylindrical glass chamber measuring 2 L in volume, equipped with glass drainage mechanisms to facilitate urine collection and a metallic screen to segregate urine from feces (as in Figure S1). Air was drawn from the chamber at 6.0 L/min through a cartridge containing the XAD-2 polymeric resin to capture any exhaled [^14C]-PCB52. For periods longer than 24 h postexposure, exposed dams were placed in a metabolic cage, which was fitted with a cartridge containing XAD-2 to capture exhaled [^14C]-PCB52 as in other end points.
Maternal blood, urine, and feces samples were collected immediately before and at 0.21, 1.67, 12, 24, 48, and 96 h after lung dosing. The exposed dams were euthanized using 4% isoflurane, followed by cervical dislocation and exsanguination via a cardiac puncture. Euthanasia was consistently performed during the light cycle. Dams’ fur was wiped and analyzed for radioactivity. Using the retro-orbital blood collection method, 0.5–1.5 mL ([…] of an exposed pregnant rat’s body weight) of blood sample was collected from each of the dams until the individual dams were necropsied for whole-body tissue harvesting. At the end of the exposure period, the chamber’s interior walls were rinsed separately with water and acetone/hexane (25 – 45 mL) and wiped to measure residues. From the collected whole blood samples, 100 μL were aliquoted into three vials each, and the remaining blood was allowed to clot at room temperature before being centrifuged to yield serum. The placentas, developing fetuses, and whole-body tissue samples were harvested immediately before exposure and at 0.21, 1.67, 12, 24, and 96 h postexposure. […]

In the case of `Clc1ccc(Cl)c(-c2cc(Cl)ccc2Cl)c1` [PCB52, 2,2′,5,5′-Tetrachlorobiphenyl], the half-life ([1]; intravenous administration in male rats) is listed as roughly 10 days, the half-life estimate ([1]; intravenous, male rats, measured only up to 72 h postdosing) is listed as 10 days and the “PCB52 share of radioactivity over time” value ([2]; adipose tissue) is listed as 66.0 to 96.8%. The “unmetabolized PCB52 share of radioactivity over time” value ([2]; brain) was 74.4 to 60.2%, the “PCB52 share of radioactivity over time” value ([2]; fetal tissues) was 54.1 to 27.7% and the “unmetabolized PCB52 share of radioactivity over time” value ([2]; liver) was 64.0 to 37.3%. For the same molecule, the “parent PCB52 share of radioactivity” value ([2]; 0.21 h) was 69.4%, the “parent PCB52 share of radioactivity” value ([2]; 96 h) was 6.8% and the “PCB52 share of radioactivity over time” value ([2]; placenta) was 67.8 to 28.6%. The “parent compound in urine” value ([2]; urine) was “no detectable parent compound”, the half-life [3] was 2160 to 2880 min and the dose retained ([4]; after 96 h) was 41.1%. The elimination through feces ([4]; at 96 h postexposure) was 42.5%, the elimination through urine ([4]; at 96 h postexposure) was 14.5% and the total elimination ([4]; at 96 h postexposure) was 58.9%. The “exhaled proportion of the administered dose” value ([4]; by 96 h postexposure) was 1.33 ± 0.51% and the “average lung uptake (administered dose distributed to the systemic circulation)” value ([4]; intratracheal administration) was 99.4 ± 0.5% and 99.40 ± 0.51%.
